Patent US20110009624A9, “BENZIMIDAZOLE COMPOUNDS HAVING GASTRIC ACID SECRETION INHIBITORY ACTION” (priority 2006, published 2011)

What was measured:
[1] = tested on: gastric acid secretion (histamine-stimulated); assay: Gastric acid secretion inhibitory effects in dogs fitted with chronic gastric fistula tube; type: in vivo; conditions: for Gastric acid secretion inhibitory action (%) / Duration of gastric acid secretion inhibitory action (%): dogs with chronic gastric fistula tube, histamine i.v., 1.6 mg/kg i.d.; for Gastric acid secretion inhibitory action (%): day 1 (1 h 40 min to 2 h after administration); for Duration of gastric acid secretion inhibitory action (%): day 2 (24 hours after administration); for gastric acid secretion inhibitory action and duration of gastric acid secretion inhibitory action (assessment in words): on the basis of Table 1
Protocol: Gastric Acid Secretion Inhibitory Effects in Dogs Fitted with Chronic Gastric Fistula Tube
The gastric acid secretion inhibitory and duration of gastric acid secretion inhibitory action of compounds of the examples were assessed using large dogs fitted with a chronic gastric fistula tube (body weights: approx. 14 to 19 kg). The experiment was conducted for 2 days. On the first day, gastric juices were collected every 20 minutes under conditions of continuous intravenous administration of histamine (50 or 75 μg/kg/h) for 3 hours. A compound of the examples dissolved or suspended in 0.5% methyl cellulose solution was administered via a catheter implanted in the duodenum at the rate of 0.1 ml/kg one hour after the start of histamine administration. The gastric acid secretion inhibitory action of the compound of the examples was assessed over the next two hours. On the second day (24 hours after administration of the compound of the examples), gastric juices were collected every 20 minutes under conditions of continuous intravenous administration of histamine for 2 hours followed by assessment of the duration of gastric acid secretion inhibitory action. After measuring the amount of gastric juices, 0.5 ml of gastric juice were sampled and titrated to neutrality to a pH of 7.0 with 0.04 mol/L aqueous sodium hydroxide solution to measure acid concentration. The amount of gastric acid discharged was determined by multiplying the amount of gastric juice by the acid concentration. Gastric acid secretion inhibitory action was evaluated as the rate of gastric acid secretion inhibition (%) on day 1. Gastric acid secretion inhibitory action (%) was determined according to the formula indicated below:
Gastric acid secretion inhibitory action (%)=(A−B)/A×100
[A]: amount of gastric acid discharged for 20 minutes from 40 minutes to 1 hour after the start of administration of histamine
[B]: amount of gastric acid discharged for 20 minutes from 1 hour 40 minutes to 2 hours after the start of administration of the compound of the examples.
The duration of gastric acid secretion inhibitory action was evaluated as the rate of gastric acid secretion inhibition (%) on day 2. The duration of gastric acid secretion inhibitory action (%) was determined according to the formula indicated below:
Duration of gastric acid secretion inhibitory action (%)=(C−D)/C×100
[C]: Total amount of gastric acid discharged from start of administration of histamine on day 1 to one hour later
[D]: Total amount of gastric acid discharged from start of administration of histamine on day 2 to one hour later.

H+, K+-ATPase = target: T1, H+, K+-ATPase (Sus scrofa, UniProt P19156); assay: H+, K+-ATPase activity inhibitory action; type: biochemical; conditions: hog gastric mucosa enzyme, preincubation 30 minutes at 37° C., pH 6.1
T1 construct: H^+, K^+-ATPase was prepared from a fundic gland area of fresh hog gastric mucosa; from tissue; host or cells: fundic gland area of fresh hog gastric mucosa
Protocol: H^+, K^+-ATPase Activity Inhibitory Action
H^+, K^+-ATPase was prepared from a fundic gland area of fresh hog gastric mucosa using a variation of the Chang's method [Biochim. Biophys. Acta 464, 313 (1977)].
(1) The sodium salt of 2-[[[4-[3-hydroxy-2-(hydroxymethyl)propoxy]-3,5-dimethylpyridin-2-yl]methyl]sulfinyl]-1H-benzimidazole (Example 15) and (2) 3-[3-hydroxy-2-(hydroxymethyl)propoxy]-2,4-dimethyl-5H-pyrido[1′,2′,4,5][1,2,4]thiadiazino[2,3-a]benzimidazolium hexafluorophosphate (Example 16) were selected for the test compounds, and each was used after dissolving in methanol.
10 μL aliquots of various concentrations of the test compounds or solvent were mixed into 200 μL of 50 μg/mL H^+, K^+-ATPase, 100 μL of 10 mmol/L Pipes-Tris (pH 6.1) and 190 μL of distilled water followed by incubating for 30 minutes at 37° C., adding 150 μL of 100 mmol/L KCl (or distilled water) and 10 μL of 100 μg/mL gramicidin, and further incubating for 10 minutes. […] The amount of inorganic phosphoric acid that was released during this 10 minute period was measured in compliance with the method of Yoda and Hokin (Biochem. Biophys. Res. Commun., 40, 880, 1970). […]
Residual enzyme activity at each concentration of test compound was determined as the amount of H^+, K^+-ATPase activity as a percentage of the H^+, K^+-ATPase activity of a control group (solvent addition). […]

T1 sequence (P19156 whole entry): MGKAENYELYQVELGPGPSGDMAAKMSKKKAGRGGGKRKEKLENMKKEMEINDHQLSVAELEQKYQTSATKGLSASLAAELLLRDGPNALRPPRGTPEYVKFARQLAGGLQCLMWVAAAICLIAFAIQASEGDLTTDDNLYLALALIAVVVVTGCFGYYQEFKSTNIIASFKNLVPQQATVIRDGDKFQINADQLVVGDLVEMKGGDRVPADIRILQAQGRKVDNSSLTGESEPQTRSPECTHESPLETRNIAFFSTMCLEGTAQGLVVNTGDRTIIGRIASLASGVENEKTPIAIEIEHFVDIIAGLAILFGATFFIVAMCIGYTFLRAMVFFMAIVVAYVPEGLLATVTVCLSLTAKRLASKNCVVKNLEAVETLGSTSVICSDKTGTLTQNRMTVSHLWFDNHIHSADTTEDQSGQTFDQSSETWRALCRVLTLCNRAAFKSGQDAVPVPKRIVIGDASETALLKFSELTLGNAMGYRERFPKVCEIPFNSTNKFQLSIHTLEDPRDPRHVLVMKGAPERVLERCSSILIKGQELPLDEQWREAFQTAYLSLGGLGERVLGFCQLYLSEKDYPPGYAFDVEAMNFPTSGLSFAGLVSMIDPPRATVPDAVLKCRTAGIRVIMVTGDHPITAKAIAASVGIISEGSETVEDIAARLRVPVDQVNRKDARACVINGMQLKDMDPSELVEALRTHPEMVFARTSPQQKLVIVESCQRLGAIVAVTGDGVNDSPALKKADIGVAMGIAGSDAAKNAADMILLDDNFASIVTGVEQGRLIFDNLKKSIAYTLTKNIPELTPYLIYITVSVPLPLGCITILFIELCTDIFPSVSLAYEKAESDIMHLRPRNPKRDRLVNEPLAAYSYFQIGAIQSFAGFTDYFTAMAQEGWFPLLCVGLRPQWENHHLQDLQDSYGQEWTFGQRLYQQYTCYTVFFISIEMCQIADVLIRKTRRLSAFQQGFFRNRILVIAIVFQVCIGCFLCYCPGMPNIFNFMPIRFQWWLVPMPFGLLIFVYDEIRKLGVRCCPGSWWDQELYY
T1 sequence (P18434 whole entry partner): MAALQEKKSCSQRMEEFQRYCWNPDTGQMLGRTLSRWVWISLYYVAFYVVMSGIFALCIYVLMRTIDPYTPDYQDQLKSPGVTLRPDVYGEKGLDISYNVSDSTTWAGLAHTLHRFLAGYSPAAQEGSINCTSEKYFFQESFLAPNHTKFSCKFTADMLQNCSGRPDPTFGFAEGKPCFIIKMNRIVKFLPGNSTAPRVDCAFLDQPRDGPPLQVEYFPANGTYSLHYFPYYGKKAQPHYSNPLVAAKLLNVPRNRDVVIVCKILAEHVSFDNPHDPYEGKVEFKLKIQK

| IC50 (H+, K+-ATPase) | Structure (SMILES) | Gastric acid secretion inhibitory action (%) [1] | Duration of gastric acid secretion inhibitory action (%) [1] | gastric acid secretion inhibitory action and duration of gastric acid secretion inhibitory action (assessment in words) [1] |
| --- | --- | --- | --- | --- |
|  | Cc1c(OCCC2COC3(CCOCC3)O2)ccnc1C[S+]([O-])c1nc2ccccc2[n-]1.[Na+] (stereo not shown) [Example 13, 2-[[[3-methyl-4-[2-(1,4,8-trioxaspiro[4.5]deca-2-yl)ethoxy]pyridin-2-yl]methyl]sulfinyl]-1H-benzimidazole] | 100% | 84% | satisfactory |
| 0.22 µM | Cc1c[n+]2c(c(C)c1OCC(CO)CO)CSn1c-2nc2ccccc21 [Example 16, 3-[3-Hydroxy-2-(hydroxymethyl)propoxy]-2,4-dimethyl-5H-pyrido[1′,2′,4,5][1,2,4]thiadiazino[2,3-a]benzimidazolium hexafluorophosphate] |  |  |  |
|  | Cc1c(OCCCC2COC3(CCC3)O2)ccnc1C[S+]([O-])c1nc2ccccc2[n-]1.[Na+] (stereo not shown) [Example 9, 2-[[[4-[3-(5,8-dioxaspiro[3.4]octa-6-yl)propoxy]-3-methylpyridin-2-yl]methyl]sulfinyl]-1H-benzimidazole] | 100% | 89% | satisfactory |
